Data taken from patent US20070059684A1 (UNIVERSITY OF MEDICINE AND DENTISTRY OF NEW JERSEY, published 2007).
Entries after “also recorded” stand apart in the source; their conditions may differ. Like-named read-outs stand apart in the source and are kept apart here.

How the values were obtained:
[1] = tested on: nonsense mutations; details: 5 ug/ml, UPF1+ and UPF1− strains
Description: Effects of drugs at a concentration of 5 μg/ml on nonsense supression in UPF+ and UPF− strains.
UPF1+ and UPF1− strains were treated with 5 ug/ml sparsomycin, anisomycin, and paromomycin, and tested for nonsense suppression.

[2] = tested on: translation; assay type: cell-based, Saccharomyces cerevisiae; details: JD88 cells, indicated drug concentrations, 30° C. 5 hrs
[3] = tested on: L-A, M1 and L-BC dsRNA viruses; assay type: cell-based, Saccharomyces cerevisiae; details: 72 hrs at 3.8 μM anisomycin; not confirmed by northern blot
Description: FIG. 12. (A) A single non-killer (K^−) colony from each drug concentration in the 72 hr data set was picked at random and total nucleic acids (TNA) were extracted [Dinman and Wickner, Virology 66:3669 (1992)]. Approximately equal amounts of TNA were separated through a 1% non-denaturing TAE-agarose gel and stained with ethidium bromide. The 4.6 kb L-A and L-BC, and the 1.8 kb M1 dsRNA bands are indicated. (B) RNA was denatured in the gel shown in (A), transferred to nitrocellulose and hybridized with [^32P]CTP labeled L-A and M1 (+) strand RNA probes as described in [Dinman and Wickner, Genetics 136:75 (1994)].
To determine whether loss of the M1 satellite virus was responsible for loss of the killer phenotype, a non-killer (K^−) colony from each drug concentration in the 72 hr data set was picked at random and total nucleic acids (TNA) were extracted [Park et al., Virology 216:451 (1996)]. Approximately equal amourits of TNA were separated through a 1% non-denaturing TAE-agarose gel and stained with ethidium bromide (FIG. 12A). As expected, the 1.8 kb M1 dsRNA band is not present in the K^− (drug treated) samples. Further, L-A appears to have also been cured by these drugs. […]
Recently the cDNA sequence of L-BC (also known as La), a ubiquitous minor dsRNA virus of yeast has been determined [Park et al., supra]. […]

[4] = tested on: human host cells; assay type: cell-based
Description: Antiviral activities of these antibiotics were also tested against HIV.

[5] = tested on: tcm1/mak8 mutants; details: cited from earlier work
[6] = tested on: HIV; assay type: cell-based, human
[7] = tested on: killer phenotype (M1 satellite virus); details: 3.8 μM anisomycin, after 48 or 72 hours, JD88 cells
Description: JD88 cells were cultured in rich medium containing the indicated concentrations of either anisomycin (A) or sparsomycin (B). After 24, 48, 72, 96, or 120 hrs., aliquots of cells were removed, washed twice with sterile water, streaked onto rich medium, and grown to single colonies at 30° C. These were then replica plated onto indicator plates, and scored for their killer phenotypes. Loss of the killer phenotype was measured by dividing the number of non-killer (K^−) colonies by the total number of colonies. Each data set corresponds to >100 total colonies.
After 24, 48, 72, 96, or 120 hrs., aliquots of cells were streaked for single colonies onto rich medium, which were then replica plated onto indicator to score their killer phenotypes.

[8] = tested on: Saccharomyces cerevisiae strains (wildtype, mof4-1); assay type: cell-based; details: 30° C. 4 days
[9] = molecular target: T1, Upf2p (Saccharomyces cerevisiae, UniProt P38798 1-1089, limits assumed); experiment: two-hybrid system
T1 construct: Tested in a two-hybrid system; also called product of the UPF2/IFS1 gene
T1 sequence (looked up): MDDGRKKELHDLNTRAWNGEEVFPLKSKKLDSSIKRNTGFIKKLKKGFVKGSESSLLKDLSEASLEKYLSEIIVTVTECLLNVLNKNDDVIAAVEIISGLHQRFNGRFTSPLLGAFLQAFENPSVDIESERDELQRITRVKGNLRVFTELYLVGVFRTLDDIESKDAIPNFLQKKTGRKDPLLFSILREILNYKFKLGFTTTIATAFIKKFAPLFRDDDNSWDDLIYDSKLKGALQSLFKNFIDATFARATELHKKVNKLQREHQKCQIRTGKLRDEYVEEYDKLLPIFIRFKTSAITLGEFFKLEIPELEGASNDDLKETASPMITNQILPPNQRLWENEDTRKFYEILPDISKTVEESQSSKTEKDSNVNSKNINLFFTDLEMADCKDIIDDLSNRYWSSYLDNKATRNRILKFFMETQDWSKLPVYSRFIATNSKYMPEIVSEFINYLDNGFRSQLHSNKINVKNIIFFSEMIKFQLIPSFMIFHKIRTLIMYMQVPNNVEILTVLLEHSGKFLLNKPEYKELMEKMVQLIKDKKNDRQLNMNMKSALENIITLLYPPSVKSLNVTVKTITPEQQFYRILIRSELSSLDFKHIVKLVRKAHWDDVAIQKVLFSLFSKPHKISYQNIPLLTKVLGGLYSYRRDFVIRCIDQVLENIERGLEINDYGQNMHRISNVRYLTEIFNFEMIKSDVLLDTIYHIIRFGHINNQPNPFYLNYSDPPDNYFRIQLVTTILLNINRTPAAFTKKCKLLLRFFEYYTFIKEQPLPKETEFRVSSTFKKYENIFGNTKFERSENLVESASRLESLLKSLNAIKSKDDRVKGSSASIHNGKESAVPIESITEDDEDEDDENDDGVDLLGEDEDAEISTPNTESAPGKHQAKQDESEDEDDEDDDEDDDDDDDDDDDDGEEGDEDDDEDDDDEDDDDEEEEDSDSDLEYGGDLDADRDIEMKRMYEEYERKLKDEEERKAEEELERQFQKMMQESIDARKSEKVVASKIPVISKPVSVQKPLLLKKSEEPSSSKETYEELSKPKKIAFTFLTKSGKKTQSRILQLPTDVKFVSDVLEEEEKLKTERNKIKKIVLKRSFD

COc1ccc(C[C@H]2NC[C@H](O)[C@H]2OC(C)=O)cc1 [anisomycin]
nonsense suppression [1]: able to suppress nonsense mutations | overall translation (β-gal activities from pTI25) as percentage of the no drug controls [2]: ≥ 80% | L-BC dsRNA band [3]: appears to missing | minimum inhibitory concentration (MIC) [4]: about 1.5 ug/ml | effectiveness in tcm1/mak8 mutants [5]: resistant; also recorded: ineffective | titers of HIV [6]: decrease titers of HIV | HIV viral titers as % of the no drug controls ([6]; anisomycin at concentrations 1500-fold lower than MIC, 4 days): approximately 30% | antiviral concentration relative to the MIC (fold lower) ([6]; concentration giving approximately 30% HIV titer): 1500 | loss of the killer phenotype (non-killer colonies / total colony forming units) [7]: approximately 53%

NC[C@@H]1O[C@H](O[C@H]2[C@@H](O)[C@H](O[C@@H]3[C@@H](O)[C@H](N)C[C@H](N)[C@H]3O[C@H]3O[C@H](CO)[C@@H](O)[C@H](O)[C@H]3N)O[C@@H]2CO)[C@H](N)[C@@H](O)[C@@H]1O [paromomycin]
nonsense suppression [1]: able to suppress nonsense mutations | PAROMOMYCIN SENSITIVITY (diameter of the zone of growth inhibition) ([8]; strain Wildtype (MOF+UPF+), disc 1.0 mg paromomycin, media lacking leucine): 0.7 cm | PAROMOMYCIN SENSITIVITY (diameter of the zone of growth inhibition) ([8]; strain mof4-1 (UPF1::URA3) + pmof4XAB, disc 1.0 mg, media lacking uracil and leucine): 1.6 cm | PAROMOMYCIN SENSITIVITY (diameter of the zone of growth inhibition) ([8]; strain mof4-1 (UPF1::URA3) + pmof4XAE, disc 1.0 mg, media lacking uracil and leucine): 2.3 cm | PAROMOMYCIN SENSITIVITY (diameter of the zone of growth inhibition) ([8]; strain mof4-1 (UPF1::URA3) + vector, disc 1.0 mg, media lacking uracil and leucine): 1.7 cm | PAROMOMYCIN SENSITIVITY (diameter of the zone of growth inhibition) ([8]; strain mof4-1 + pYCpUPF1, disc 1.0 mg, media lacking uracil and leucine): 1.6 cm | PAROMOMYCIN SENSITIVITY (diameter of the zone of growth inhibition) ([8]; strain mof4-1 + vector, disc 1.0 mg, media lacking uracil and leucine): 2.4 cm | PAROMOMYCIN SENSITIVITY (diameter of the zone of growth inhibition) ([8]; strain mof4-1, disc 1.0 mg paromomycin, media lacking leucine): 2.0 cm

B1: Upf3p (other, Saccharomyces cerevisiae, UniProt P48412 1-387, looked up)
chain: MSNVAGELKNSEGKKKGRGNRYHNKNRGKSKNETVDPKKNENKVNNATNATHNNSKGRRNNKKRNREYYNYKRKARLGKSTENEGFKLVIRLLPPNLTADEFFAILRDNNNDDGDKQDIQGKLKYSDWCFFEGHYSSKVFKNSTYSRCNFLFDNLSDLEKCANFIKTCKFIDNKDNITIPDMKLSPYVKKFTQTSKKDAALVGTIEEDEIFKTFMNSMKQLNENDEYSFQDFSVLKSLEKEFSKSIELENKIAERTERVLTELVGTGDKVKNKNKKKKNKNAKKKFKEEEASAKIPKKKRNRGKKKRENREKSTISKTKNSNVVIIEEAGKEVLKQRKKKMLLQEKLKISNSSQPQSSSAQTQPSFQPKENLFVPRVKILHRDDTKK
notes: Tested in a two-hybrid system; also called product of the UPF3 gene
binding result [9]: binds

B2: Upf1p (other, Saccharomyces cerevisiae, UniProt P30771 1-971, looked up)
chain: MVGSGSHTPYDISNSPSDVNVQPATQLNSTLVEDDDVDNQLFEEAQVTETGFRSPSASDNSCAYCGIDSAKCVIKCNSCKKWFCNTKNGTSSSHIVNHLVLSHHNVVSLHPDSDLGDTVLECYNCGRKNVFLLGFVSAKSEAVVVLLCRIPCAQTKNANWDTDQWQPLIEDRQLLSWVAEQPTEEEKLKARLITPSQISKLEAKWRSNKDATINDIDAPEEQEAIPPLLLRYQDAYEYQRSYGPLIKLEADYDKQLKESQALEHISVSWSLALNNRHLASFTLSTFESNELKVAIGDEMILWYSGMQHPDWEGRGYIVRLPNSFQDTFTLELKPSKTPPPTHLTTGFTAEFIWKGTSYDRMQDALKKFAIDKKSISGYLYYKILGHQVVDISFDVPLPKEFSIPNFAQLNSSQSNAVSHVLQRPLSLIQGPPGTGKTVTSATIVYHLSKIHKDRILVCAPSNVAVDHLAAKLRDLGLKVVRLTAKSREDVESSVSNLALHNLVGRGAKGELKNLLKLKDEVGELSASDTKRFVKLVRKTEAEILNKADVVCCTCVGAGDKRLDTKFRTVLIDESTQASEPECLIPIVKGAKQVILVGDHQQLGPVILERKAADAGLKQSLFERLISLGHVPIRLEVQYRMNPYLSEFPSNMFYEGSLQNGVTIEQRTVPNSKFPWPIRGIPMMFWANYGREEISANGTSFLNRIEAMNCERIITKLFRDGVKPEQIGVITPYEGQRAYILQYMQMNGSLDKDLYIKVEVASVDAFQGREKDYIILSCVRANEQQAIGFLRDPRRLNVGLTRAKYGLVILGNPRSLARNTLWNHLLIHFREKGCLVEGTLDNLQLCTVQLVRPQPRKTERPMNAQFNVESEMGDFPKFQDFDAQSMVSFSGQIGDFGNAFVDNTELSSYINNEYWNFENFKSAFSQKQNRNEIDDRNLYQEEASHLNSNFARELQREEQKHELSKDFSNLGI
notes: Tested in a two-hybrid system; also called Upf1 protein; product of the UPF1/IFS2/MOF4 gene
binding result [9]: binds
